Assay results published in patent US6562828B1, “Amidine compounds” (Japan Tobacco Inc., priority 1998, dated 2003).
Structures can show the parent of a compound that is named as a salt.

Assays:
[1] = system: decrease of platelets and formation of FDP by thromboplastin; experiment: Blood coagulation model in rat (thromboplastin); format: in vivo; settings: i.v. 10 min before thromboplastin, mean ± S.D, n = 3; for PLT value: counted 10 min later; for FDP value: measured 30 min later
Description: Blood Coagulation Model in Rat
Intravenous administration of thromboplastin (Sigma) to rat promotes coagulation system, which in turn decreases platelets and increases fibrin degradation product (FDP). Thus, the test compound was intravenously administered 10 min before thromboplastin administration and the inhibitory effects of the test compound on the decrease of platelets and the formation of FDP by thromboplastin were studied. The thromboplastin administered had such concentration as to form clots within 20 seconds from the addition of one plasma dose to two thromboplastin doses and was administered in 1 ml/kg dose. Platelets were counted (PLT value) 10 min later on a blood cell counter sysmex F-800 [Dade International Inc. (USA)], and FDP was measured 30 min later using FDP latex reagent for serum [Teikoku Hormone Mfg. Co., Ltd. (Tokyo, Japan)]. In every Example, the PLT value of the thromboplastin untreated group was (106±13)×10^4 and the FDP value of this group was 0±0 μg/ml.

[2] = target: T1, Human FXa (Homo sapiens, UniProt P00742); experiment: Intravenous administration test in mouse, human FXa inhibitory activity in serum; format: in vivo; settings: ICR mice, i.v., mean ± S.D., n = 3
T1 construct: Human FXa [Enzyme research Laboratories (USA)] enzyme; purchased Enzyme Research Laboratories (USA)
Description: Intravenous Administration Tests in Mouse
A test compound dissolved in physiological saline was intravenously administered to ICR mice (body weight 20-30 g, 4-6 weeks old) and the activity of the test compound was evaluated based on the human FXa inhibitory activity in serum as an indicator.
At 10, 30, 60, 120 min from the intravenous administration, blood was taken from the eye ground using a hematocrit tube. The blood was centrifuged at 9000 G for 5 min and the obtained serum was used for the determination.
(§1) Human FXa inhibitory activity was measured as follows. Human FXa [Enzyme research Laboratories (USA)] enzyme (40 μl, 0.5 U/ml) and a 4-fold diluted plasma sample (40 μl) were incubated in 0.1M Tris-0.2M NaCl buffer (pH 8.4) (40 μl) at 37° C. for 10 min. A synthetic substrate S-2222 (Daiichi Pure Chemical (Tokyo, Japan), 40 μl) adjusted to 0.8 mM was added and the mixture was incubated at 37° C. for 5 min. The reaction was stopped by addition of 60% acetic acid (40 μl) and absorbance at 405 nm was measured by Model 3550 (BIO-RAD). For the control, serum or plasma obtained prior to blood sampling was used for measurement. Human FXa inhibitory activity was calculated as inhibition percentage (%) against control.
Target sequence in this assay (P00742 235-488 limits assumed): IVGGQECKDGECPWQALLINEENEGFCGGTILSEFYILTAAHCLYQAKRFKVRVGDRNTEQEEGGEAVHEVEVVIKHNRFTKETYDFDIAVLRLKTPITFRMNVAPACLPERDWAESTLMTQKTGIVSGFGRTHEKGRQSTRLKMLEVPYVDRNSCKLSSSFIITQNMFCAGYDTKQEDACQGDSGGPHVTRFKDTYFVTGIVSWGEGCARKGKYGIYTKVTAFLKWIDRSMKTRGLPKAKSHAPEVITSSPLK
Target sequence in this assay (P00742 41-179 limits assumed): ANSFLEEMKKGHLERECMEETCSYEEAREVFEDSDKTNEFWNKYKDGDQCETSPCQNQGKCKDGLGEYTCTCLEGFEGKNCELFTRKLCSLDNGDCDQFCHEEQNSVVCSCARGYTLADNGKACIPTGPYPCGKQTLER

[3] = system: normal plasma; experiment: Determination of prothrombin time (PT), human plasma; format: biochemical
Description: (§2) Determination of prothrombin time (PT)
(§3) Blood was taken from mouse, rat, crab-eating monkey and healthy human volunteers, and citric acid was added. The blood was centrifuged at 4° C. and 2000 G for 15 min to obtain normal plasma of various animals.
(§4) Purified water (5 μl) containing various concentrations of test compound was added to plasma (45 μl) and the resultant mixtures were used as samples. […] (Baxter) was prepared and heated at […] for 5 min, and a sample (50 μl) was admixed with the thrombin reagent (100 μl). The time (PT) until precipitation of fibrin was measured. The drug concentration that doubled the PT hours of the drug untreated group was calculated and taken as CT2.

[4] = system: normal plasma; experiment: Determination of prothrombin time (PT), rat plasma; format: biochemical
Description: as §2, §3, §4

[5] = target: T1, Human FXa; experiment: Oral administration test in monkey, human FXa inhibitory activity in plasma; format: in vivo; settings: crab-eating monkey, mean ± S.D., n = 3
Description: as §1
Target sequence in this assay (P00742 235-488 limits assumed): as the sequence (P00742 235-488 limits assumed) above
Target sequence in this assay (P00742 41-179 limits assumed): as the sequence (P00742 41-179 limits assumed) above
Oral Administration Tests in Monkey
A test compound dissolved in distilled water was orally administered to monkey (carb-eating monkey, body weight 3.5-4.5 kg) and the activity of the test compound was evaluated based on the human FXa inhibitory activity in plasma as an indicator.
At 30, 60, 120, 240, 480 min from the oral administration, blood was taken from the saphenous vein with the passage of time and the blood was centrifuged at 2000 G for 10 min. The obtained citric acid plasma was used for the determination. Human FXa inhibitory activity was determined in the same manner as in the test by intravenous administration.

[6] = system: normal plasma; experiment: Determination of prothrombin time (PT), mouse plasma; format: biochemical
Description: as §2, §3, §4

[7] = target: T1, Human FXa; experiment: Oral administration test in mouse, human FXa inhibitory activity in serum; format: in vivo; settings: ICR mice, mean ± S.D., n = 3
Description: as §1
Target sequence in this assay (P00742 235-488 limits assumed): as the sequence (P00742 235-488 limits assumed) above
Target sequence in this assay (P00742 41-179 limits assumed): as the sequence (P00742 41-179 limits assumed) above
Oral Administration Tests in Mouse
A test compound dissolved in distilled water was orally administered to ICR mice (body weight 20-30 g, 4-6 weeks old) and the activity of the test compound was evaluated based on the human FXa inhibitory activity in serum as an indicator.
At 30, 60, 120, 180 min from the oral administration, blood was taken from the eye ground using a hematocrit tube. The blood was centrifuged at 9000 G for 5 min and the obtained serum was used for the determination. Human FXa inhibitory activity was determined in the same manner as in the test by intravenous administration.

[8] = target: T1, Human FXa; experiment: Determination of anti-factor Xa (FXa) activity, synthetic substrate S-2222; format: biochemical; settings: S-2222, 37° C., pH 8.4, read-out: Experimental Example 1: anti-FXa activity, IC50
Description: Determination of Anti-factor Xa (FXa) Activity
Human FXa [Enzyme research Laboratories (USA)] enzyme (40 μl, 0.16U/ml) and test compounds (40 l) adjusted to various concentrations were incubated in 0.1M Tris (Tris-hydroxymethyl-aminomethane) buffer (pH 8.4) containing 0.2M sodium chloride (herein to be referred to as 0.1 M tris-0.2M NaCl buffer) (40 μl) at 37° C. for 10 min. A synthetic substrate S-2222 (Daiichi Pure Chemical (Tokyo, Japan), 40 μl) adjusted to 0.8 mM was added and the mixture was incubated at 37° C. for 10 min. The reaction was stopped by addition of 60% acetic acid (40 μl) and absorbance at 405 nm was measured by Model 3550 (BIO-RAD). For the control, the solvent was used instead of the test compound.
Target sequence in this assay (P00742 235-488 limits assumed): as the sequence (P00742 235-488 limits assumed) above
Target sequence in this assay (P00742 41-179 partner limits assumed): as the sequence (P00742 41-179 limits assumed) above

inhibition at 0.1 mg/kg ([2]; 10 minutes): 31 ± 3% | inhibition at 0.1 mg/kg ([2]; 30 minutes): 10 ± 3% | inhibition at 0.1 mg/kg ([2]; 60 minutes): 0% | inhibition at 0.1 mg/kg ([2]; 120 minutes): 0% | inhibition at 0.3 mg/kg ([2]; 10 minutes): 65 ± 1% | inhibition at 0.3 mg/kg ([2]; 30 minutes): 38 ± 5% | inhibition at 0.3 mg/kg ([2]; 60 minutes): 16 ± 3% | inhibition at 0.3 mg/kg ([2]; 120 minutes): 8 ± 4% | inhibition at 1 mg/kg ([2]; 10 minutes): 70 ± 1% | inhibition at 1 mg/kg ([2]; 30 minutes): 69 ± 2% | inhibition at 1 mg/kg ([2]; 60 minutes): 41 ± 10% | inhibition at 1 mg/kg ([2]; 120 minutes): 1 ± 3% | inhibition at 10 mg/kg ([5]; 30 minutes): 62 ± 53% | inhibition at 10 mg/kg ([5]; 60 minutes): 62 ± 51% | inhibition at 10 mg/kg ([5]; 120 minutes): 83 ± 13% | inhibition at 10 mg/kg ([5]; 240 minutes): 68 ± 16% | inhibition at 10 mg/kg ([5]; 480 minutes): 27 ± 10% | inhibition at 10 mg/kg ([7]; 30 minutes): 46 ± 3% | inhibition at 10 mg/kg ([7]; 60 minutes): 34 ± 7% | inhibition at 10 mg/kg ([7]; 120 minutes): 20% | inhibition at 10 mg/kg ([7]; 180 minutes): 21 ± 5% | IC50 [8]: 3 nM
Compound: CC(=N)N1CCC(Oc2ccc(N(Cc3nc4cc(C(=N)N)ccc4n3CC(=O)N[C@@H](C)c3ccccc3)C(=O)c3ccc(C(=O)O)cc3)cc2)CC1 [Example 17, (S)-4-[N-[5-Amidino-1-(1-phenylethylcarbamoylmethyl)benzimidazole-2-ylmethyl]-N-[4-(1-acetimidoylpiperidin-4-yloxy)phenyl]carbamoyl]benzoic Acid Dihydrochloride]
PLT value ([1]; dose 0.01 mg/kg): 41 ± 13 ×10^4 blood platelet/μl | FDP value ([1]; dose 0.01 mg/kg): 6 ± 3 µg/mL | PLT value ([1]; dose 0.03 mg/kg): 92 ± 11 ×10^4 blood platelet/μl | FDP value ([1]; dose 0.03 mg/kg): 1 ± 1 µg/mL | PLT value ([1]; dose 1 mg/kg): 108 ± 6 ×10^4 blood platelet/μl | FDP value ([1]; dose 1 mg/kg): 0 ± 0 µg/mL | CT2 (drug concentration that doubled the PT) [3]: 0.5 µM | CT2 (drug concentration that doubled the PT) [4]: 2 µM | CT2 (drug concentration that doubled the PT) [6]: 2 µM
